Test results from patent US11807650B2, “NMDA receptor modulators and uses thereof” (Novartis AG, priority 2016, dated 2023).

What was measured:
[1] = target: T1, human GRIN1 (variant NR1-3) and GRIN2D expressed in HEK293 cells (Homo sapiens, UniProt O15399); test: GluN2D PAM CIQ fluorescence assay (Fluo-8 calcium, FDSS 6000); assay type: cell-based; conditions: relative to CIQ (100 uM) = 100%, read-out: NR2D Percent CIQ Avg Max Measured Effect
T1 construct: GenScript (GRIN2D synthesis) SC115601; host or cells: HEK293
T1 sequence (O15399 28-1336, other chains not shown): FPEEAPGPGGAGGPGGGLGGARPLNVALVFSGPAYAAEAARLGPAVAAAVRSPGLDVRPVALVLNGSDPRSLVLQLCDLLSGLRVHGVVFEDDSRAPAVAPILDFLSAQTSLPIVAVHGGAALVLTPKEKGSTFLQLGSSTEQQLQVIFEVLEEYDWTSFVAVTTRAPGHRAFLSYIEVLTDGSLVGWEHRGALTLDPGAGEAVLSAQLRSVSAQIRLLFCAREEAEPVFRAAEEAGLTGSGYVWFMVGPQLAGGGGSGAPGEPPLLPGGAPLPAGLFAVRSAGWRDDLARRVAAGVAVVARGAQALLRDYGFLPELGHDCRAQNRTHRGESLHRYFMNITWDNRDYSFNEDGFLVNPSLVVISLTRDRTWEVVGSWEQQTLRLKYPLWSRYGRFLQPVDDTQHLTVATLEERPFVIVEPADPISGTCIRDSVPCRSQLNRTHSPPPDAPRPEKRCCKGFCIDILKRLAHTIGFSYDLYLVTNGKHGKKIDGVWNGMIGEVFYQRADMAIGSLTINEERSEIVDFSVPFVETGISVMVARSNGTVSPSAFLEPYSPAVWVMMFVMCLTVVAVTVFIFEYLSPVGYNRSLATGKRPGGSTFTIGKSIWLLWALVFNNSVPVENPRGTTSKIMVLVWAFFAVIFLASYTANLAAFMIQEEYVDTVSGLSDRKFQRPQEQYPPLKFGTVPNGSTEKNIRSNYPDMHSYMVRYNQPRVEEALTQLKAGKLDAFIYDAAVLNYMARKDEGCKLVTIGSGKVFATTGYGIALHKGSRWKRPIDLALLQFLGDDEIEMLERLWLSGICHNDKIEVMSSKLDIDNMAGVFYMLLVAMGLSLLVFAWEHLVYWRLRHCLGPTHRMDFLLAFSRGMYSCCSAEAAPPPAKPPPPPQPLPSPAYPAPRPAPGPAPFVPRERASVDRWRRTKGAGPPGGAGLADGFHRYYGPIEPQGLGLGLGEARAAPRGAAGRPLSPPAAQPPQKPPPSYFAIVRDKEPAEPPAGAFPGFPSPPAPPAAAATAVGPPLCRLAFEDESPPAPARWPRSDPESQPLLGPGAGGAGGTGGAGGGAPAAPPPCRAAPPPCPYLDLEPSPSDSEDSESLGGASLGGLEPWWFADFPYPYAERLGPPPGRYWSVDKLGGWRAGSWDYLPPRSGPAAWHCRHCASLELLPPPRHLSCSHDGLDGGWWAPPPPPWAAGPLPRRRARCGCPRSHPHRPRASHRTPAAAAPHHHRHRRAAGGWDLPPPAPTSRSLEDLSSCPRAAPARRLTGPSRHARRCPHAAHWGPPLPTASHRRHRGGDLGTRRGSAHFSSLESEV
Method: GluN2D PAM CIO Flourescence AssayHEK293 cells were transfected to express human GRIN1 (variant NR1-3, Origene, SKU #: SC115601, Rockville, Md.) and GRIN2D (NCBI locus NM_000836, sequence optimized and synthesized by GenScript) and grown as an adherent monolayer at 37° C., 5% CO2 in DMEM/Ham's F12+10% FBS (Hyclone SH3007.03T in the presence of 2.5 mM ARL-15896 (AdooQ Bioscience, Irvine Calif.). To prepare the cells for an experiment, they were rinsed with Dulbecco's PBS (Ca^2+ and Mg^2+ free) and detached from the flask with TrypLE™ Express (Life Technologies, Carlsbad, Calif.) using the manufacturer's recommended methods. Cells collected from the flask were washed twice in Ca^2+/Mg^2+-free Hanks Balanced Salt Solution+20 mM HEPES (HBSS), and counted and assessed for viability with trypan blue. Washed cells were then dye-loaded by resuspending in Fluo-8/AM calcium sensitive dye plus Component B (AAT Bioquest, Sunnyvale, Calif.) diluted in HBSS. To allow cells to take up fluo-8 dye, they were incubated in the dark for 15 min at 37° C., followed by 30 min at 22-25° C. After dye-loading, cells were washed and resuspended in HBSS and plated in 384-well plates (Falcon 353962; Corning, Big Flats, N.Y.) at 20,000-30,000 cells/well in a final volume of 25 μl/well. The cell plates were centrifuged at 200×g, for 2 minutes at 21° C., to create a monolayer of cells at the bottom of the wells.
To initiate an assay, 10 μl of test compound or buffer was added to each well of the cell plate and pre-incubated for 10 minutes in the dark. After 10 minutes, the cell plate was placed in a FDSS 6000 plate reader (Hamamatsu Photonics, Middlesex, N.J.); baseline fluorescence readings were collected for 20 seconds. Next, 25 μl of agonist solution (3 μM glutamate, 3 μM glycine, and 1 mM Ca^2+ in HBSS) was added and the change in fluorescence was recorded for 3 minutes.
Results were calculated by comparing the effects of test compounds to that of the literature standard GluN2C/D PAM CIQ (100 uM). The increase in fluorescence in the presence of CIQ minus the increase induced by glutamate+glycine alone was set to 100%. Responses induced by compounds that were larger than gain the presence of the standard concentration of CIQ were greater than 100% and lesser responses were less than 100%.

[2] = target: T2, human GRIN1 (transcript variant NR1-3) and GRIN2D expressed in Xenopus oocytes (Homo sapiens, UniProt O15399); test: NR2D oocyte potentiation assay (two-electrode voltage clamp); assay type: cell-based; conditions: 10 uM test compound; glutamate and glycine 10 μM each; holding potential −40 mV
T2 construct: GenScript (GRIN2D synthesis) SC115601; host or cells: Xenopus oocytes injected with cRNA (1 GluN1 : 2 GluN2)
T2 sequence (O15399 28-1336, other chains not shown): as above
How it was run: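 Xenopus oocytes were defolliculated with collagenase, then injected with 50 nL of cRNA encoding human GluN1 (NR1-3 variant) and GluN2D mixed 1:2 and kept 72 h at 16° C. Two-electrode voltage clamp at −40 mV recorded currents; after 10 μM glutamate plus 10 μM glycine reached plateau, test compound was added until a new plateau formed.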

Row | SMILES | Emax [1] | activation at 10 µM [2] | NR2D Oocyte % Potentiation @ 10 uM [2]
1 | CC(C)(C)c1ccc(-c2nc3n(c(=N)c2C#N)CCCS3)cn1 [Example 38, 8-(6-(tert-butyl)pyridin-3-yl)-6-imino-3,4-dihydro-2H,6H-pyrimido[2,1-b][1,3]thiazine-7-carbonitrile] | 100 to 200% | > 1000% | –
2 | N#Cc1c(-c2ccc(C3CC3)cc2)nc2n(c1=O)CCCS2 [Example 189, 8-(4-cyclopropylphenyl)-6-oxo-2H,3H,4H,6H-pyrimido[2,1-b][1,3]thiazine-7-carbonitrile] | 10 to 50% | 10 to 100% | –
3 | C[C@H]1CSc2nc(-c3ccc(C(C)(C)C)nc3)c(C#N)c(=O)n2C1 [Example 44, (R)-8-(6-(tert-butyl)pyridin-3-yl)-3-methyl-6-oxo-3,4-dihydro-2H,6H-pyrimido[2,1-b][1,3]thiazine-7-carbonitrile] | 100 to 200% | 100 to 500% | –
4 | CC(C)(C)c1ccc(-c2nc3n(c(=O)c2C#N)CCCS3)cn1 [Example 174, 8-(6-tert-butyl-3-pyridinyl)-3,4-dihydro-6-oxo-2H,6H-pyrimido[2,1-b][1,3]thiazine-7-carbonitrile] | 100 to 200% | 500 to 1000% | –
5 | CC(C)(C)c1ccc(-c2nc3n(c(=O)c2C#N)CCCS3)s1 [Example 177, 8-(5-tert-butylthiophen-2-yl)-6-oxo-2H,3H,4H,6H-pyrimido[2,1-b][1,3]thiazine-7-carbonitrile] | 100 to 200% | – | –
6 | N#Cc1c(-c2ccc(Cl)cc2)nc2n(c1=O)CCS2 [Example 209, 7-(4-chlorophenyl)-5-oxo-2H,3H,5H-[1,3]thiazolo[3,2-a]pyrimidine-6-carbonitrile] | 10 to 50% | – | Inhibitor
7 | CC1CSc2nc(-c3cnc(C(C)(C)C)nc3)c(C#N)c(=N)n2C1 (centres unmarked) [Example 39, 8-(2-(tert-butyl)pyrimidin-5-yl)-6-imino-3-methyl-3,4-dihydro-2H,6H-pyrimido[2,1-b][1,3]thiazine-7-carbonitrile] | > 200% | > 1000% | –
8 | CC(C)c1ccc(-c2nc3n(c(=O)c2C#N)CCS3)cc1 [Example 206, 5-oxo-7-[4-(propan-2-yl)phenyl]-2H,3H,5H-[1,3]thiazolo[3,2-a]pyrimidine-6-carbonitrile] | 50 to 100% | 10 to 100% | –
9 | CSc1ccc(-c2nc3n(c(=O)c2C#N)CCS3)cc1 [Example 207, 7-[4-(methylsulfanyl)phenyl]-5-oxo-2H,3H,5H-[1,3]thiazolo[3,2-a]pyrimidine-6-carbonitrile] | 100 to 200% | – | –
10 | CC(C)(C)c1ccc(-c2nc3n(c(=O)c2C#N)CC2(CC2)CS3)cc1 [Example 203, 8′-(4-tert-butylphenyl)-6′-oxo-4′,6′-dihydro-2′H-spiro[cyclopropane-1,3′-pyrimido[2,1-b][1,3]thiazine]-7′-carbonitrile] | 100 to 200% | – | –
11 | COc1ccc(-c2nc3n(c(=O)c2C#N)CCCS3)c(OC)c1 [Example 186, 8-(2,4-dimethoxyphenyl)-6-oxo-2H,3H,4H,6H-pyrimido[2,1-b][1,3]thiazine-7-carbonitrile] | 10 to 50% | – | –
12 | Cc1ccc(-c2nc3n(c(=O)c2C#N)CCCS3)cc1 [Example 185, 8-(4-methylphenyl)-6-oxo-2H,3H,4H,6H-pyrimido[2,1-b][1,3]thiazine-7-carbonitrile] | 50 to 100% | – | –
13 | CC(C)(C)c1ccc(-c2nc3scc(N)n3c(=O)c2C#N)cc1 [Example 210, 3-amino-7-(4-tert-butylphenyl)-5-oxo-5H-thiazolo[3,2-a]pyrimidine-6-carbonitrile] | 10 to 50% | – | –
14 | COc1ccccc1-c1nc2n(c(=O)c1C#N)CCCS2 [Example 188, 8-(2-methoxyphenyl)-6-oxo-2H,3H,4H,6H-pyrimido[2,1-b][1,3]thiazine-7-carbonitrile] | 10 to 50% | – | –
15 | N#Cc1c(-c2ccc(-c3ccccc3)cc2F)nc2n(c1=O)CCCS2 [Example 194, 3,4-dihydro-8-(2-fluoro-4-phenylphenyl)-6-oxo-2H,6H-pyrimido[2,1-b][1,3]thiazine-7-carbonitrile] | 10 to 50% | – | –
16 | C[C@H]1CSc2cc(-c3ccc(C4(C)CC4)nc3)c(C#N)c(=O)n2C1 [Example 117, (R)-3-methyl-8-(6-(1-methylcyclopropyl)pyridin-3-yl)-6-oxo-3,4-dihydro-2H,6H-pyrido[2,1-b][1,3]thiazine-7-carbonitrile] | – | > 1000% | –
17 | CC(C)(C)c1ccc(-c2nc3n(c(=O)c2C#N)CC(C(F)(F)F)CS3)cn1 (centres unmarked) [Example 143, 8-(6-(tert-butyl)pyridin-3-yl)-6-oxo-3-(trifluoromethyl)-3,4-dihydro-2H,6H-pyrimido[2,1-b][1,3]thiazine-7-carbonitrile] | – | 100 to 500% | –
18 | C[C@@H]1CSc2cc(-c3ccc(C(C)(C)C)nc3)c(C#N)c(=O)n2C1 [Example 97, (S)-8-(6-(tert-butyl)pyridin-3-yl)-3-methyl-6-oxo-3,4-dihydro-2H,6H-pyrido[2,1-b][1,3]thiazine-7-carbonitrile] | – | > 1000% | –
19 | CC1(c2ccc(-c3nc4n(c(=O)c3C#N)CCCS4)cn2)COC1 [Example 154, 8-(6-(3-methyloxetan-3-yl)pyridin-3-yl)-6-oxo-3,4-dihydro-2H,6H-pyrimido[2,1-b][1,3]thiazine-7-carbonitrile] | – | 10 to 100% | –
20 | C[C@@H]1CSc2nc(-c3cnc(C(C)(C)C)c(F)c3)c(C#N)c(=N)n2C1 [Example 113, (S)-8-(6-(tert-butyl)-5-fluoropyridin-3-yl)-6-imino-3-methyl-3,4-dihydro-2H,6H-pyrimido[2,1-b][1,3]thiazine-7-carbonitrile] | – | > 1000% | –
21 | CN(C)CC1CSc2nc(-c3cnc(C(C)(C)C)c(F)c3)c(C#N)c(=O)n2C1 (centres unmarked) [Example 160, 8-(6-(tert-butyl)-5-fluoropyridin-3-yl)-3-((dimethylamino)methyl)-6-oxo-3,4-dihydro-2H,6H-pyrimido[2,1-b][1,3]thiazine-7-carbonitrile] | – | 10 to 100% | –
22 | CC(C)(C)c1ccc(-c2nc3n(c(=O)c2C#N)CCS3)cn1 [Example 1, 7-(6-(tert-butyl)pyridin-3-yl)-5-oxo-2,3-dihydro-5H-thiazolo[3,2-a]pyrimidine-6-carbonitrile] | – | 100 to 500% | –
23 | C[C@@H]1CSc2nc(-c3cnc(C(C)(C)C)nc3)c(C#N)c(=N)n2C1 [Example 101, (S)-8-(2-(tert-butyl)pyrimidin-5-yl)-6-imino-3-methyl-3,4-dihydro-2H,6H-pyrimido[2,1-b][1,3]thiazine-7-carbonitrile] | – | > 1000% | –
24 | COC(=O)C1CSc2nc(-c3ccc(C(C)(C)C)nc3)c(C#N)c(=O)n2C1 (centres unmarked) [Example 86, methyl 8-(6-(tert-butyl)pyridin-3-yl)-7-cyano-6-oxo-3,4-dihydro-2H,6H-pyrimido[2,1-b][1,3]thiazine-3-carboxylate] | – | 100 to 500% | –
25 | CC(C)(C)c1ccc(-c2nc3n(c(=O)c2C#N)CC(F)(F)CS3)cn1 [Example 24, 8-(6-(tert-butyl)pyridin-3-yl)-3,3-difluoro-6-oxo-3,4-dihydro-2H,6H-pyrimido[2,1-b][1,3]thiazine-7-carbonitrile] | – | 100 to 500% | –
26 | CC1CSc2nc(-c3ccc(C45CC(C4)C5)nc3)c(C#N)c(=O)n2C1 (centres unmarked) [Example 148, 8-(6-(bicyclo[1.1.1]pentan-1-yl)pyridin-3-yl)-3-methyl-6-oxo-3,4-dihydro-2H,6H-pyrimido[2,1-b][1,3]thiazine-7-carbonitrile] | – | 100 to 500% | –
27 | CCOC(C)(C)c1ccc(-c2nc3n(c(=O)c2C#N)CCCS3)cn1 [Example 122, 8-(6-(2-ethoxypropan-2-yl)pyridin-3-yl)-6-oxo-3,4-dihydro-2H,6H-pyrimido[2,1-b][1,3]thiazine-7-carbonitrile] | – | – | Inhibitor
28 | COc1cc(-c2nc3n(c(=O)c2C#N)CCCS3)cnc1C(C)(C)C [Example 60, 8-(6-(tert-butyl)-5-methoxypyridin-3-yl)-6-oxo-3,4-dihydro-2H,6H-pyrimido[2,1-b][1,3]thiazine-7-carbonitrile] | – | 500 to 1000% | –
